Compared with `NC1CCNC(c2cnccn2)C1` (centres undefined), `COc1cccc(CN2CCN(C)CC2C2=NCCN2)c1OC` (centres undefined) is higher in melting point: 158 to 160 °C for the first, 160 to 162 °C for the second.

First: O=C(O)c1cc(Cl)c(OCc2ccc(Cl)cc2)c(Cl)c1
Second: O=C(O)C1=Cc2cc(-c3ccc(Cl)cc3)ccc2OC1C(F)(F)F (centres undefined)
The melting point of the first is higher: 215 to 220 °C for the first, 212 to 213 °C for the second.

First: NS(=O)(=O)c1ccc(NC(=O)CNc2ccccc2)c(Br)c1
Second: O=C(c1ccccc1)c1cccc(NC(=O)C(Cl)CCl)c1 (centres undefined)
The melting point of the first is higher: 179 to 181 °C for the first, 92 °C for the second.

Compared with `CCOC(=O)Cn1c(C(=O)NCc2nnc(C)n2-c2sc(CC)cc2C(=O)c2ccccc2Cl)cc2cc(F)ccc21`, `Cc1ccc(S(=O)(=O)N(CC(=O)OCc2ccccc2)c2ccc(Cl)cc2C(=O)c2ccccc2Cl)cc1` is lower in melting point: 125 to 127 °C for the first, 99 to 101 °C for the second.

First: COC(=O)c1c(Cl)nc2cc3c(cc2c1CCl)OCCO3
Second: COC(=O)c1cc(Cl)cc(O)c1O
The melting point of the first is higher: 130 to 132 °C for the first, 102 °C for the second.

First: COc1cc(-c2cnc3[nH]cc(C(=O)NCC(C)(C)CO)c3n2)cc(OC)c1OC
Second: COc1cc(OC)c(NC(=O)CC(C#N)c2ccccc2)c(OC)c1 (centres undefined)
The melting point of the first is higher: 224 to 225 °C for the first, 157 to 160 °C for the second.

Compared with `CC(C)(C)[Si](C)(C)Oc1ccc2[nH]nc(N3C(=O)c4ccccc4C3=O)c2c1`, `CC(C)(C)C(=O)OC1C(c2ccccc2)=C(c2ccc(S(C)(=O)=O)cc2)C1(C)C` (centres undefined) is lower in melting point: 225 to 228 °C for the first, 66 to 67 °C for the second.

Compared with `C=C(C)C(=O)OCCOCc1ccc(O)c2ncccc12`, `CCc1cc(OCc2cccc(C(=O)OC)c2)cc(O)c1C(C)=O` is higher in melting point: 90 to 91 °C for the first, 132 °C for the second.

Compared with `Cc1cc(C)c(Nc2nc(C)ccc2S(=O)(=O)c2ccc(O)cc2)c(C)c1`, `Cc1cc(-c2ccc(F)cc2F)n(-c2ccc(S(N)(=O)=O)cc2)c1` is lower in melting point: 226 to 228 °C for the first, 170 to 172 °C for the second.

Compared with `Cc1ccc(S(=O)(=O)N(C)c2ncc(Cl)cc2[N+](=O)[O-])cc1`, `CN(C)S(=O)(=O)c1ccc(C(F)(F)F)cc1[N+](=O)[O-]` is lower in melting point: 141 to 143 °C for the first, 102 to 104 °C for the second.

Compared with `CCOC(=O)C(C(=O)CCC(C)C)C1c2nccnc2C(=O)N1c1ccc2ccc(Cl)nc2n1` (centres undefined), `CC(C)n1nc(-c2nc(N)cnc2-c2ccccc2)ccc1=O` is higher in melting point: 136 °C for the first, 214 to 217 °C for the second.

First: CC1(C)COP(N(CCCCCCN(C2CC(C)(C)NC(C)(C)C2)P2OCC(C)(C)CO2)C2CC(C)(C)NC(C)(C)C2)OC1
Second: CN1C(=O)CCC2(C)C3CCC4(C)C(OCC(N)=O)CCC4C3CCC12 (centres undefined)
The melting point of the first is lower: 103 °C for the first, 222 to 225 °C for the second.

First: COc1ccc([N+](=O)[O-])c2[nH]ccc(=O)c12
Second: O=C1c2cccc([N+](=O)[O-])c2C2CC(O)CCN12 (centres undefined)
The melting point of the first is lower: 195 to 200 °C for the first, over 260 °C for the second.

First: NC(=O)c1sc2c(Cl)cccc2c1Cl
Second: NC(=O)c1n[nH]c2ccccc12
The melting point of the first is lower: 225 to 229 °C for the first, 284 to 286 °C for the second.

First: O=C(Nc1cc2ncc(CN3CCCC3)cc2cc1Cl)c1ccc(-c2cc3ccccc3o2)cc1
Second: CC(=O)OCc1ccc(-c2[nH]c(-c3cccc4ccccc34)nc2C(=O)Nc2nccs2)cc1
The melting point of the first is higher: 209 °C for the first, 197 to 199 °C for the second.

Compared with `CC(=O)N1CCNC(=O)C1c1ccc(F)cc1` (centres undefined), `CN(O)C(=O)C(=Cc1ccc2ccccc2c1)c1ccc(F)cc1` is lower in melting point: 139 to 140 °C for the first, 132 to 134 °C for the second.

First: O=C(O)Cc1ccc2nc(-c3ccccc3)ccc2c1
Second: CCN(CC)Cc1ccc2nc(-c3ccccc3)cc(OCc3ccccc3)c2c1
The melting point of the first is higher: 161 to 162 °C for the first, 108 to 109 °C for the second.

First: N[C@@H](Cc1ccc(O)cc1)[C@H](O)C(F)(F)F
Second: CC(=O)SCC(C(=O)Nc1cccc(O)c1)C(F)(F)F (centres undefined)
The melting point of the first is higher: 172 to 174 °C for the first, 148 to 149 °C for the second.

First: Cc1c(-c2ccc(O)cc2)sc(C=O)c1-c1ccc(O)cc1
Second: Oc1ccc(C=Cc2cccc(O)c2)cc1
The melting point of the first is higher: 223 to 225 °C for the first, 213 to 214 °C for the second.

First: CCC(Oc1ccc2ccccc2c1)C(=O)OC1CC(O)C=C2C=CC(C)C(CCC3CC(O)CC(=O)O3)C21 (mixture of isomers)
Second: CC(C)(C)OC(=O)NCc1cccc(OCCC2Oc3ccccc3N(Cc3cccc(Cl)c3)C2=O)c1 (centres undefined)
The melting point of the first is higher: 124 to 127 °C for the first, 98 to 100 °C for the second.

First: CCOC(=O)c1cn(CCF)c2cc(F)c(F)cc2c1=O
Second: COc1ccc2c(CC3=C(CC(=O)O)CCC3=O)cccc2c1C(F)(F)F
The melting point of the first is higher: 178 to 180 °C for the first, 59 to 61 °C for the second.

First: CCOC(=O)C(Cl)C(=O)Nc1ccc(Cl)cc1 (centres undefined)
Second: CN(C)NC(=O)c1ccc(-c2ccc(Cl)cc2)o1
The melting point of the first is lower: 104 to 105 °C for the first, 150 to 152 °C for the second.

Compared with `O=C(O)C1CCc2c(c3ccccc3n2C(=O)c2cccc(Br)c2)C1` (centres undefined), `Clc1ccccc1CSc1nc2cccc3c2n1CCC3` is lower in melting point: 185 to 186 °C for the first, 157 to 159 °C for the second.

Compared with `Cc1oc(-c2ccccc2)nc1CCOc1ccc(C=O)cc1`, `O=c1oc(-c2ccc(OCc3ccccc3)cc2)cc(O)c1SCCc1ccccc1` is higher in melting point: 79 to 81 °C for the first, 139 to 142 °C for the second.

Compared with `O=C(O)c1cccnc1-c1ccc2[nH]nc(Nc3nccs3)c2c1`, `Cc1cccc(-c2nc3cccnn3c2-c2ccnc(NC3CCCC3)c2)c1` is lower in melting point: 267 to 268 °C for the first, 130 to 131 °C for the second.

Compared with `O=C(O)COC1c2ccccc2COc2ccc(OCc3ccc4cc(Cl)ccc4n3)cc21` (centres undefined), `CCCCOc1cc(CCS(=O)(=O)NC(=O)OCc2ccccc2)n(Cc2ccc(Cl)cc2Cl)n1` is lower in melting point: 179 to 180 °C for the first, 92 to 95 °C for the second.

First: CC(=O)SCC(C)C(=O)N(CC(=O)O)c1ccccc1 (centres undefined)
Second: CC(C)C(NC(=O)Cc1ccc(-c2ccccc2)cc1)C(=O)Nc1n[nH]c(=S)s1 (centres undefined)
The melting point of the first is lower: 94 to 94.5 °C for the first, 232 to 236 °C for the second.

First: CCOCn1cnc2c1c(=O)n(C)c(=O)n2C
Second: Cn1c(=O)c2c(nc(C=Cc3cccc(C(F)(F)F)c3)n2C)n(C)c1=O
The melting point of the first is lower: 110 to 112 °C for the first, 232 to 236 °C for the second.

First: COc1ccc(CC(=O)NC2CCN(Cc3ccccc3)CC2)cc1
Second: CC(O)(COc1ccc(-c2ccc(Cl)cc2)cc1)CN1CCCC1 (centres undefined)
The melting point of the first is higher: 171 to 173 °C for the first, 121 to 122 °C for the second.

First: CN(C)c1ccc2c(c1)c(=O)[nH]c(=O)n2CCCCN1CCC(OC(c2ccccc2)c2ccccc2)CC1
Second: Clc1ccc(C(c2ccccc2)c2ccccc2)cn1
The melting point of the first is higher: 165 to 167 °C for the first, 69.5 to 71 °C for the second.

First: Nc1ccc(-c2nnc(-c3ccccn3)nn2)nc1
Second: O=C(NC(c1ccccc1)c1cc2ccncc2[nH]1)c1ccccn1 (centres undefined)
The melting point of the first is higher: 207 to 209 °C for the first, 102 to 110 °C for the second.

`N#Cc1c(N2CCc3ccccc3CC2)nc2[nH]ccn2c1=O` and `C1=C(c2c[nH]cn2)c2ccccc2C1` cannot be ordered by melting point: over 200 °C for the first, 232 to 240 °C for the second.

First: CCN=C(NCc1ccccc1)NN=Cc1c(Cl)cccc1Cl
Second: C=Cc1cccc2c(Nc3ccc(O)cc3C)c(C(=O)CCC)cnc12
The melting point of the first is lower: 101 to 103 °C for the first, 150 to 152 °C for the second.

First: COc1cc2c(cc1-c1cccnc1)-c1c(-c3cncs3)c3c(n1CC2)C(=O)N(C(C)(C)C)CCCC3
Second: O=C(c1ccn2c1CSC2c1cccnc1)c1c[nH]c2cc(-c3cccnc3)ccc12 (centres undefined)
The melting point of the first is lower: 227 to 229 °C for the first, 270 to 271 °C for the second.

Compared with `CCOC(=O)/C=C1\C[C@@H]2c3cccc4[nH]cc(c34)C[C@H]2N(C)C1`, `CCCN(CCC)C1Cc2cccc3c2N(C1)C(=O)C3` (centres undefined) is lower in melting point: 170 to 171 °C for the first, 86 to 88 °C for the second.

First: N#Cc1cc(NC(=O)c2ccn(-c3ccc(Cl)cc3)c2)ccc1N1CCN(CCO)CC1
Second: CCc1cnc(N2CCN(C(=O)c3ccc(CNc4ncnc5ccccc45)cc3)CC2)nc1
The melting point of the first is higher: 196 °C for the first, 170 to 171 °C for the second.

Compared with `COc1ccc2c(Cc3c(Cl)cncc3Cl)nnc(N3CCCC3)c2c1`, `COc1cc2c(c3c1OC(C)(C)C3)C(c1ccc(N)cc1)=NC(C)(C)C2` is higher in melting point: 170 to 172 °C for the first, 192 to 195 °C for the second.

Compared with `O=C1Nc2ccc(F)c(F)c2C(C#Cc2ccccn2)(C(F)(F)F)N1` (racemic), `O=C(O)c1ccc(C2=NOC(c3cc(Cl)cc(Cl)c3)(C(F)(F)F)C2)cc1F` (centres undefined) is lower in melting point: 219 to 220 °C for the first, 172 to 174 °C for the second.

First: Nc1cc(Nc2ccccc2)nc2c1ncn2C1OC(CO)C(O)C1O (centres undefined)
Second: CC(CC(C(=O)N(C)C)(c1ccccc1)c1ccccc1)N1CCC(NC(=O)c2cnc[nH]2)C(O)C1 (centres undefined)
The melting point of the first is higher: 192 to 195 °C for the first, 155 °C for the second.

First: CCCCCCCCCCCCOc1ccc(C(=O)Oc2ccc(C(=O)OC3CCC(CCC)(CCC)OC3=O)cc2)cc1 (centres undefined)
Second: CCCCCCCCCCCCc1ccc(S(=O)(=O)Nc2nnc(C)s2)cc1
The melting point of the first is lower: 91 °C for the first, 149 to 150 °C for the second.

Compared with `c1ccc(C(c2ccccc2)c2ccncc2)cc1`, `COc1ccc(CNc2ccncc2)c2c1OCC2C` (centres undefined) is higher in melting point: 124 to 126 °C for the first, 138 to 145 °C for the second.

Compared with `C#CCC#CCC#CCOc1ccc(C)cc1`, `CC(=O)C(CC(C)C)NC(=O)CCOc1ccc([N+](=O)[O-])cc1` (centres undefined) is higher in melting point: 34.5 to 35.5 °C for the first, 101 to 102 °C for the second.

Compared with `CS(=O)(=O)N1CCN(S(=O)(=O)c2ccc3c(c2)S(=O)(=O)NC(C2CCCCC2)N3)CC1` (centres undefined), `Cc1cc(-c2sc(N3CCN(CC4CC4)C3=O)nc2C)n[nH]1` is lower in melting point: 272 to 274 °C for the first, 231 to 233 °C for the second.

First: COc1ccc(C2(c3ccc(OC)cc3)CN(c3ccc(S(C)(=O)=O)cc3)C(c3ccc(Cl)cc3)=N2)cc1
Second: COC(=O)C(NS(=O)(=O)c1ccc(-c2ccc([N+](=O)[O-])cc2)cc1)C(C)C (centres undefined)
The melting point of the first is lower: 110 to 113 °C for the first, 144 to 146 °C for the second.

Compared with `COc1nc(=O)[nH]cc1C`, `COc1nc(C)nc(NC(=O)NS(=O)(=O)OCC(Cl)(Cl)Cl)n1` is lower in melting point: 196 to 199 °C for the first, 128 °C for the second.

Compared with `C#CCCCC(=O)c1nc(C(C)(C)C)c(O)c(C(C)(C)C)n1`, `CCN(CC)C(=O)Cc1cc(C(C)(C)C)c(O)c(C(C)(C)C)c1` is higher in melting point: 64 to 66 °C for the first, 111 to 113 °C for the second.

Compared with `CCCCN1CC(O)N(c2cc(OC)c(Cl)cc2F)C1=S` (centres undefined), `CCCCCC1OC12CCC(Nc1ncnc(CC)c1Cl)CC2` (centres undefined) is lower in melting point: 137 to 138 °C for the first, 41 to 42 °C for the second.

Going from `CC12CC(=O)C3C(CCC4CC(O)CCC43C)C1CCC2C(=O)CSc1ccccn1` (centres undefined) to `CC(=N)Nc1cc(C)ccc1N1CCOCC1`, the melting point falls from 184 °C to 121 °C.

Compared with `O=C1NC(=S)NC1=Cc1cc(O)c(O)c([N+](=O)[O-])c1`, `CS(=O)(=O)c1cc(N)c([N+](=O)[O-])cc1N` is lower in melting point: over 350 °C for the first, 221 °C for the second.

`COC(=O)c1cc(C#Cc2cnc3nc(NC(=O)C(C)(C)C)nc(O)c3c2)cn1[Si](C(C)C)(C(C)C)C(C)C` gave a melting point of 163 to 165 °C.

From a melting point compilation (Tetko et al.; mined from patent text by program, amines drawn as free bases though some values may be those of a salt)
